Test system: CD8+ T cells
Test: IFN-γ ELISpot assay of peptide immunogenicity (peptide-pulsed DC:CD8+ T cell co-culture)
Assay type: cell-based, human
Description: We obtained peripheral mononuclear cells (PBMCs) from healthy donor buffy coat samples via density gradient centrifugation. We utilized QIAamp DNA Blood Kits (Qiagen) to isolate DNA for HLA typing with LinkSeq™ HLA-ABCDRDQDP+ 384 Kit (One Lambda) on a QuantStudio™ 7 Flex Real-Time PCR System. Human T and dendritic cells (DCs) were enriched from PBMCs using a CD8 cell isolation kit and Pan-DC enrichment kit (Miltenyi Biotec), respectively, and subsequently cultured in RPMI-1640 medium (Life Technologies) supplemented with 10% FBS and 100 U/mL of Penicillin-Streptomycin.
Dendritic cells (DCs) were pulsed with a 10 μg mL^−1 peptide concentration at a cell density of 10^5 cells/mL for 4 hours at 37° C. Following this, the DCs were mixed with autologous CD8+ T cells at a DC:T cell ratio of 1:10. The cell mixture was then aliquoted into an ELISpot plate at 100 μL per well and incubated for 24 hours. The secreted IFN-γ signal was detected using the ELISpot Plus Human IFN-γ (ALP) kit (Mabtech). […]
We utilized ELISpot assay, which quantifies cytokine IFN-γ releasing by CD8^+ T lymphocytes isolated from PBMCs of healthy subjects, to verify the immunogenic potential of candidate peptides. […] We co-cultured pan-DCs loaded with the candidate peptides with autologous CD8′ T cells for 24 hours and assessed the secretion of IFN-γ as an indicator of T-cell activation and immunogenicity.

Sequence	T cell response (IFN-γ secretion) (peptide concentration of 1 ug mL^−1, DC:CD8+ T cell co-culture, 24 hours, healthy donors)	immunogenicity demonstrated in the ELISpot analysis
MCDEDETTA [Actin1-9, peptide derived from human Actin within the amino acid region 1-9, negative control]	negligible response	
STIHLASQFTK (Description of sequence: non-canonical peptide, associated gene: CRYBG1, classification: CDS (frame-shift), short form name: p9; listed as Homo sapiens)		strong immunogenicity
